Data as given in patent publication US11851406B2, “Positive allosteric modulators of the muscarinic acetylcholine receptor M1” (Vanderbilt University, priority 2018, dated 2023).

How the values were obtained:
[1] = molecular target: T1, human mAChR M1 (Homo sapiens, UniProt P11229); assay: mAChR M1 cell-based functional assay (calcium mobilization), agonist activity upon compound addition alone; conditions: CHO-K1 cells expressing hM1; for EC50: calcium mobilization upon compound addition, no acetylcholine; for Emax: compound alone, relative to the maximum for acetylcholine
T1 sequence (P11229 1-460): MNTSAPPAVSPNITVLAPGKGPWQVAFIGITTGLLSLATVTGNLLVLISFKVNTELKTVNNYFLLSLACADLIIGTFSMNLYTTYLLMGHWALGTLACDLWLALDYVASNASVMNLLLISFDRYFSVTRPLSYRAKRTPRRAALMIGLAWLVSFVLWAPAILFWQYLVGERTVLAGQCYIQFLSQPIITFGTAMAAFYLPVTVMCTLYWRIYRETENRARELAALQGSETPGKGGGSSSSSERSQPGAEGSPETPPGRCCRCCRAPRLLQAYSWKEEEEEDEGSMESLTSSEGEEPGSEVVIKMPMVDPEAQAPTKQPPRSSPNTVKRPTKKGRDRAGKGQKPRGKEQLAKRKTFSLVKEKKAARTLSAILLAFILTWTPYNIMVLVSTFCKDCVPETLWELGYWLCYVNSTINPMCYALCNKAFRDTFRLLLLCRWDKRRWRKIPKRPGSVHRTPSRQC
Source text: (§1) Chinese hamster ovary (CHO-K1) cells stably expressing rat (r)M1 were purchased from the American Type Culture Collection and cultured according to their indicated protocol. CHO cells stably expressing human (h)M2, hM3, and hM5 were described previously (Levey, et al., 1991); hM1 and hM4 cDNAs were purchased from Missouri S&T cDNA Resource; rM4 cDNA was provided by T. I. Bonner (National Institutes of Health, Bethesda, Md.). rM2 and rM3 were cloned from a rat brain cDNA library and sequence verified. hM1, rM2, rM3, hM4, and rM4 cDNAs were used to stably transfect CHO-K1 cells purchased from the American Type Culture Collection using Lipofectamine2000. To make stable rM2, hM2, rM3, hM4, and rM4 cell lines for use in calcium mobilization assays, these cells also were stably transfected with a chimeric G-protein (Gqi5) (provided by B. R. Conklin, University of California, San Francisco) using Lipofectamine 2000. rM1, hM1, rM3, hM3, rM5, and hM5 cells were grown in Ham's F-12 medium containing 10% heat-inactivated fetal bovine serum (FBS), 20 mM HEPES, and 50 μg/mL G418 sulfate. rM2-Gqi5, hM2-Gqi5, and hM4-Gqi5 cells were grown in the same medium also containing 500 μg/mL Hygromycin B. Stable rM4-Gqi5 cells were grown in DMEM containing 10% heat-inactivated FBS, 20 mM HEPES, 400 μg/mL G418 sulfate, and 500 μg/mL Hygromycin B.
(§2) For high throughput measurement of agonist-evoked increases in intracellular calcium, CHO-K1 cells stably expressing muscarinic receptors were plated in growth medium lacking G418 and hygromycin at 15,000 cells/20 μL/well in Greiner 384-well black-walled, tissue culture (TC)-treated, clear-bottom plates (VWR). Cells were incubated overnight at 37° C. and 5% CO2. The next day, cells were washed using an ELX 405 (BioTek) with four washes (80 μL) of assay buffer then aspirated to 20 μL. Next, 20 μL of 16 μM Fluo-4/acetoxymethyl ester (Invitrogen, Carlsbad, Calif.) prepared as a 2.3 mM stock in DMSO and mixed in a 1:1 ratio with 10% (w/v) Pluronic F-127 and diluted in assay buffer was added to the wells and the cell plates were incubated for 50 min at 37° C. and 5% CO2. Dye was removed by washing with the ELX 405 (four 80 μL washes of assay buffer) then aspirated to 20 μL. Compound master plates were formatted in an 11 point CRC format (1:3 dilutions) in 100% DMSO with a starting concentration of 10 mM using the BRAVO liquid handler (Agilent). Test compound CRCs were then transferred to daughter plates (240 nL) using the Echo acoustic plate reformatter (Labcyte, Sunnyvale, Calif.) and then diluted into assay buffer (40 μL) to a 2× stock using a Thermo Fisher Combi (Thermo Fisher Scientific, Waltham, Mass.).
(§3) Calcium flux was measured using the Functional Drug Screening System (FDSS) 6000 (Hamamatsu Corporation, Tokyo, Japan) as an increase in the fluorescent static ratio. Compounds were applied to cells (20 μL, 2×) using the automated system of the FDSS 6000 at 4 s into the 300 s protocol and the data were collected at 1 Hz. At 144 s into the 300 s protocol, 10 μL of an EC20 concentration of the muscarinic receptor agonist acetylcholine was added (5×), followed by the addition of 12 μL an EC80 concentration of acetylcholine at the 230 s time point (5×). Agonist activity was analyzed as a concentration-dependent increase in calcium mobilization upon compound addition. Emax values for agonist activity are expressed relative to the maximum for acetylcholine. Positive allosteric modulator activity was analyzed as a concentration-dependent increase in the EC20 acetylcholine response. Antagonist activity was analyzed as a concentration-dependent decrease in the EC80 acetylcholine response. Concentration-response curves were generated using a four-parameter logistical equation in XLfit curve fitting software (IDBS, Bridgewater, N.J.) for Excel (Microsoft, Redmond, Wash.) or Prism (GraphPad Software, Inc., San Diego, Calif.).

[2] = molecular target: T1, human mAChR M1; assay: mAChR M1 cell-based functional assay (calcium mobilization), PAM activity: increase in the EC20 acetylcholine response; conditions: CHO-K1 cells expressing hM1; calcium flux (Fluo-4); potentiation of EC20 acetylcholine response
Source text: as §1, §2, §3

Row | SMILES | EC50 [1] | Emax [1] | EC50 [2] | Emax [2]
1 | Cn1ccc(-c2ccc(Cc3cc(C(=O)N[C@H]4CCOC[C@@H]4O)nc(-n4cccn4)c3)cc2)n1 [Compound 28, N-((3R,4S)-3-hydroxytetrahydro-2H-pyran-4-yl)-4-(4-(1-methyl-1H-pyrazol-3-yl)benzyl)-6-(1H-pyrazol-1-yl)picolinamide] | > 10 µM | 7% | 1.07 µM | 78%
2 | Cn1cc(-c2ccc(Cc3cc(C(=O)NC4CCOCC4(C)C)nc(-c4ccn(C)n4)c3)cn2)cn1 (stereo not shown) [Compound 8, N-(3,3-dimethyltetrahydro-2H-pyran-4-yl)-6-(1-methyl-1H-pyrazol-3-yl)-4-((6-(1-methyl-1H-pyrazol-4-yl)pyridin-3-yl)methyl)picolinamide] | > 10 µM | < 5% | 8.01 µM | 75%
3 | Cc1c(Cc2ccc(-n3cccn3)cc2)cc(C(=O)N[C@H]2CCOC[C@@H]2O)nc1-c1ccn(C)n1 [Compound 55, 4-(4-(1H-pyrazol-1-yl)benzyl)-N-((3R,4S)-3-hydroxytetrahydro-2H-pyran-4-yl)-5-methyl-6-(1-methyl-1H-pyrazol-3-yl)picolinamide] | 6.7 µM | 22% | 0.324 µM | 77%
4 | Cc1c(Cc2ccc(-n3cccn3)cc2)cc(C(=O)NC2CC3(COC3)C2)nc1-c1ccn(C)n1 [Compound 58, 4-(4-(1H-pyrazol-1-yl)benzyl)-5-methyl-6-(1-methyl-1H-pyrazol-3-yl)-N-(2-oxaspiro[3.3]heptan-6-yl)picolinamide] | > 10 µM | < 5% | 6 µM | 83%
5 | Cc1ccc(Cc2cc(C(=O)N[C@H]3CCC[C@@H]3O)nc(-c3ccn(C)n3)c2C)cn1 [Compound 67, N-((1S,2S)-2-hydroxycyclopentyl)-5-methyl-6-(1-methyl-1H-pyrazol-3-yl)-4-((6-methylpyridin-3-yl)methyl)picolinamide] | > 10 µM | < 5% |  | 38%
6 | Cn1cc(-c2ccc(Cc3cc(C(=O)N[C@H]4CCOC[C@@H]4O)nc(-n4cccn4)c3)cn2)cn1 [Compound 18, N-((3R,4S)-3-hydroxytetrahydro-2H-pyran-4-yl)-4-((6-(1-methyl-1H-pyrazol-4-yl)pyridin-3-yl)methyl)-6-(1H-pyrazol-1-yl)picolinamide] | ≥ 10 µM | 13% | 1.02 µM | 85%
7 | Cc1c(Cc2ccc(-n3cccn3)cc2)cc(C(=O)N[C@H]2CCCC[C@@H]2O)nc1-c1ccn(C)n1 [Compound 56, 4-(4-(1H-pyrazol-1-yl)benzyl)-N-((1S,2S)-2-hydroxycyclohexyl)-5-methyl-6-(1-methyl-1H-pyrazol-3-yl)picolinamide] | > 10 µM | < 5% | 0.906 µM | 81%
8 | Cc1c(Cc2ccc(-n3cccn3)cc2)cc(C(=O)N[C@H]2CCC[C@@H]2O)nc1-c1ccn(C)n1 [Compound 59, 4-(4-(1H-pyrazol-1-yl)benzyl)-N-((1S,2S)-2-hydroxycyclopentyl)-5-methyl-6-(1-methyl-1H-pyrazol-3-yl)picolinamide] | > 10 µM | < 5% | 1.98 µM | 85%
9 | Cc1nc(-c2ccc(Cc3cc(C(=O)N[C@H]4CC[C@@H]4O)nc(-n4cccn4)c3)cc2)co1 [Compound 25, N-((1S,2S)-2-hydroxycyclobutyl)-4-(4-(2-methyloxazol-4-yl)benzyl)-6-(1H-pyrazol-1-yl)picolinamide] | > 10 µM | < 5% |  | 40%
10 | Cc1c(Cc2ccc(-n3cccn3)cc2)cc(C(=O)NCC2CCOCC2)nc1-c1ccn(C)n1 [Compound 61, 4-(4-(1H-pyrazol-1-yl)benzyl)-5-methyl-6-(1-methyl-1H-pyrazol-3-yl)-N-((tetrahydro-2H-pyran-4-yl)methyl)picolinamide] | > 10 µM | < 5% |  | 64%
